Measured values taken from ChEMBL document CHEMBL1150523, “Synthesis of 1-(2-Deoxy-2-C-fluoromethyl--D-arabinofuranosyl)cytosine as a potential antineoplastic agent” (Bioorg Med Chem Lett, 1994).
In brackets after ≈: the same amount, converted by molar mass.

Tests used:
Assay type in all cases: functional, cell-based
A-375 = assay: Inhibitory concentration against melanoma A-375 cell line for cytotoxicity was determined; conditions: Homo sapiens
COLO 320DM = assay: Inhibitory concentration against colon adenocarcinoma COLO 320DM cell line for cytotoxicity was determined; conditions: Homo sapiens
[1] = tested on: KATO III stomach cancer cell line; assay: Inhibitory concentration against stomach adenocarcinoma KATO-III cell line for cytotoxicity was determined; conditions: Homo sapiens
KB = assay: Inhibitory concentration against solid tumor KB cell line for cytotoxicity was determined; conditions: Homo sapiens
CCRF-HSB-2 = assay: Inhibitory concentration against human T-cell line CCRF-HSB-2 for cytotoxicity was determined
PC-8 = assay: Inhibitory concentration against lung adenocarcinoma PC-8 cell line for cytotoxicity was determined; conditions: Homo sapiens

Nc1ccn([C@@H]2O[C@H](CO)C(O)C2CF)c(=O)n1 (single isomer, unassigned)
IC50 (A-375): 1.6 µg/mL (≈ 6.17 µM) | IC50 (COLO 320DM): 1.6 µg/mL (≈ 6.17 µM) | IC50 [1]: 11 µg/mL (≈ 42.4 µM) | IC50 (KB): 4.47 µg/mL (≈ 17.2 µM) | IC50 (CCRF-HSB-2): 0.03 µg/mL (≈ 0.116 µM) | IC50 (PC-8): 26 µg/mL (≈ 100 µM)
